From patent publication US9085550B2, “Ligands for estrogen related receptors and methods for synthesis of said ligands” (CITY OF HOPE, priority 2005, dated 2015)

Columns and labels:
[1] = biological target: T1, GAL-hERRa (human ERRα ligand binding domain fused to GAL4 DNA binding domain) (Homo sapiens, UniProt P11474); experiment: GAL4 reporter transactivation assay in CV-1 cells, GAL-hERRa; assay type: cell-based; settings: for Fold activation, GAL-hERRa + PGC-1a / Fold activation, GAL-hERRa: CV-1; for Fold activation, GAL-hERRa + PGC-1a: reporter 0.42:vector 0.00875:PGC-1a 0.035; for Fold activation, GAL-hERRa: reporter 0.42:vector 0.00875, no PGC-1a
T1 construct: expressed in transfected cells; host or cells: CV-1
T1 sequence (P11474 193-421 limits assumed): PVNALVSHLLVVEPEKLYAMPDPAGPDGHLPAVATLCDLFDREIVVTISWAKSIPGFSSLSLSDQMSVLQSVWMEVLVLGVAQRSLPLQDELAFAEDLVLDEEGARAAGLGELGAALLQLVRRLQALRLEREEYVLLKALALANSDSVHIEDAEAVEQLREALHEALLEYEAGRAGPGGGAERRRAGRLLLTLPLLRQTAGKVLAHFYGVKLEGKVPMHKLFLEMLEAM

[2] = biological target: T2, GAL-L-hERRb (human ERRβ ligand binding domain fused to GAL4 DNA binding domain) (Homo sapiens, UniProt O95718); experiment: GAL4 reporter transactivation assay in CV-1 cells, GAL-L-hERRb; assay type: cell-based; settings: for Fold activation, GAL-L-hERRb + PGC-1a / Fold activation, GAL-L-hERRb: CV-1; for Fold activation, GAL-L-hERRb + PGC-1a: reporter 0.42:vector 0.00875:PGC-1a 0.035; for Fold activation, GAL-L-hERRb: reporter 0.42:vector 0.00875, no PGC-1a
T2 construct: expressed in transfected cells; host or cells: CV-1
T2 sequence (O95718 208-432 limits assumed): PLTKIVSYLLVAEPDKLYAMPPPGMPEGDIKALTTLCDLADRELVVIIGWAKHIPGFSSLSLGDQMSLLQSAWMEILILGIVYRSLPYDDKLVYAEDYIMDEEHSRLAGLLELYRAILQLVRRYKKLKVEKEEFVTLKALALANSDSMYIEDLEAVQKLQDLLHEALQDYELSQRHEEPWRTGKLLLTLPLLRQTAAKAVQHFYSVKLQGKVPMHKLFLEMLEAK

[3] = biological target: T3, HRHN-GAL (yeast GAL4 DNA binding domain without receptor sequences) (Saccharomyces cerevisiae, UniProt P04386); experiment: GAL4 reporter transactivation assay in CV-1 cells, control vector without receptor; assay type: cell-based, monkey; settings: for Fold activation, HRHN-GAL: reporter 0.42:vector 0.00875, no PGC-1a
T3 construct: expressed in transfected cells; host or cells: CV-1
T3 sequence (P04386 1-147): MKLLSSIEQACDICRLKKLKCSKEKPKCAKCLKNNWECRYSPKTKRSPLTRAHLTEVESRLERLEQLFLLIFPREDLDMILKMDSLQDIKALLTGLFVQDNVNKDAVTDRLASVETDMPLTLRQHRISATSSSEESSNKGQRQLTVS

- Fold activation, GAL-hERRa + PGC-1a ([1]; 1 μM): 1.18 fold
- Fold activation, GAL-hERRa + PGC-1a ([1]; 3 μM (first 3 μM column)): 1.69 fold
- Fold activation, GAL-hERRa + PGC-1a ([1]; 3 μM (second 3 μM column)): 1.55 fold
- Fold activation, GAL-hERRa + PGC-1a ([1]; 10 μM): 2.02 fold
- Fold activation, GAL-hERRa + PGC-1a ([1]; 30 μM): 2.61 fold
- Fold activation, GAL-hERRa ([1]; 1 μM): 1.03 fold
- Fold activation, GAL-hERRa ([1]; 3 μM (first 3 μM column)): 1.41 fold
- Fold activation, GAL-hERRa ([1]; 3 μM (second 3 μM column)): 1.23 fold
- Fold activation, GAL-hERRa ([1]; 10 μM): 1.64 fold
- Fold activation, GAL-hERRa ([1]; 30 μM): 2.41 fold
- Activation of ERRα ([1]; in the presence of PGC-1a): can activate
- Fold activation, GAL-L-hERRb + PGC-1a ([2]; 1 μM): 1.38 fold
- Fold activation, GAL-L-hERRb + PGC-1a ([2]; 3 μM (first 3 μM column)): 1.79 fold
- Fold activation, GAL-L-hERRb + PGC-1a ([2]; 3 μM (second 3 μM column)): 1.47 fold
- Fold activation, GAL-L-hERRb + PGC-1a ([2]; 10 μM): 1.89 fold
- Fold activation, GAL-L-hERRb + PGC-1a ([2]; 30 μM): 2.45 fold
- Fold activation, GAL-L-hERRb ([2]; 1 μM): 1.29 fold
- Fold activation, GAL-L-hERRb ([2]; 3 μM (first 3 μM column)): 1.25 fold
- Fold activation, GAL-L-hERRb ([2]; 3 μM (second 3 μM column)): 0.98 fold
- Fold activation, GAL-L-hERRb ([2]; 10 μM): 1.33 fold
- Fold activation, GAL-L-hERRb ([2]; 30 μM): 1.36 fold
- Activation of ERRβ ([2]; in the presence of PGC-1a): can activate
- melting point: 241.9 °C
- Fold activation, HRHN-GAL ([3]; 1 μM): 0.95 fold
- Fold activation, HRHN-GAL ([3]; 3 μM (first 3 μM column)): 1.08 fold
- Fold activation, HRHN-GAL ([3]; 3 μM (second 3 μM column)): 1.25 fold
- Fold activation, HRHN-GAL ([3]; 10 μM): 1.24 fold
- Fold activation, HRHN-GAL ([3]; 30 μM): 1.26 fold
- Fold activation, HRHN-GAL + PGC-1a ([3]; reporter 0.42:vector 0.00875:PGC-1a 0.035, 1 μM): 1.31 fold
- Fold activation, HRHN-GAL + PGC-1a ([3]; reporter 0.42:vector 0.00875:PGC-1a 0.035, 3 μM (first 3 μM column)): 1.05 fold
- Fold activation, HRHN-GAL + PGC-1a ([3]; reporter 0.42:vector 0.00875:PGC-1a 0.035, 3 μM (second 3 μM column)): 1.03 fold
- Fold activation, HRHN-GAL + PGC-1a ([3]; reporter 0.42:vector 0.00875:PGC-1a 0.035, 10 μM): 1.39 fold
- Fold activation, HRHN-GAL + PGC-1a ([3]; reporter 0.42:vector 0.00875:PGC-1a 0.035, 30 μM): 1.11 fold
Compound: Cc1cccc(C=NNC(=O)c2ccc(O)cc2)c1 [DY159, 4-Hydroxy-benzoic acid (3-methyl-benzylidene)-hydrazide]
